# Reference: patent publication US8785488B2 (Exelixis Patent Company LLC, priority 2009, dated 2014)
# Assays:
# h-TGR5 = molecular target: T1, h-TGR5 (Homo sapiens, UniProt Q8TDU6); experiment: TGR5 cAMP Assay using Cisbio cAMP Dynamic2 htrf kit (hTGR5CRE-luc HEK 293 cells); format: cell-based; settings: h-TGR5 cAMP EC50, Table 1; read-out: cAMP (EC50)
# T1 construct: expressed in transfected cells
# T1 sequence (Q8TDU6 1-330): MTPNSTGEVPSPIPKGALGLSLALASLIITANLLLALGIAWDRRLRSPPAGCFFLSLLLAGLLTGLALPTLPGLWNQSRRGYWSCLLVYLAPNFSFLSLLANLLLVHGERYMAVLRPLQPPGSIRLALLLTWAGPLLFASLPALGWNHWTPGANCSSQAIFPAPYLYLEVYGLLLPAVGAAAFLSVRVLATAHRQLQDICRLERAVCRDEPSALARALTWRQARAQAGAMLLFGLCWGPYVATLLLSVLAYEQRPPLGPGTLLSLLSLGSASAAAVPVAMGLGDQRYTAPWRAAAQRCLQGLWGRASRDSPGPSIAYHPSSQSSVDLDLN
# In short: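 […], 4000 hTGR5CRE-luc HEK 293 cells per well, with 0.5 mM IBMX and d2-cAMP, were incubated 30 min at room temperature with compounds in 8-point half-log series, in quadruplicate.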
# human TGR5 (h-TGR5) = molecular target: T2, human TGR5 (h-TGR5) (Homo sapiens, UniProt Q8TDU6); experiment: TGR5/CRE-Luciferiase Assay (HEK 293 hTGR5/CRE-Luc cells); format: cell-based; settings: h-TGR5 CRE-Luc EC50, Table 1; read-out: CRE-Luc (EC50)
# T2 construct: expressed in transfected cells
# T2 sequence (Q8TDU6 1-330): T1 sequence (Q8TDU6 1-330)
# In short: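 HEK293 cells stably carrying hTGR5 and a CRE-luciferase reporter were exposed to serially diluted compounds (diluted in DMEM with 5% DMSO) for 6 h. Cells were then lysed in luciferase buffer, luminescence was read, and EC50 values were derived from dose-response curves.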
SMILES,EC50 (h-TGR5) [nM],EC50 (human TGR5 (h-TGR5)) [nM]
"COc1cc(C(C)(C)c2cnc(SCc3ccc(S(=O)(=O)NC(=O)Nc4nccs4)cc3Cl)n2-c2ccc(F)cc2)ccc1Cl [3-chloro-4-({[5-{1-[4-chloro-3-(methyloxy)phenyl]-1-methylethyl}-1-(4-fluorophenyl)-1H-imidazol-2-yl]thio}methyl)-N-[(1,3-thiazol-2-ylamino)carbonyl]benzenesulfonamide]",100 to 1000,100 to 1000
COc1cc(C(C)(C)c2cnc(SCc3ccc(S(=O)(=O)NC(=O)Nn4cccc4)cc3Cl)n2-c2ccc(F)cc2)ccc1Cl [3-chloro-4-({[5-{1-[4-chloro-3-(methyloxy)phenyl]-1-methylethyl}-1-(4-fluorophenyl)-1H-imidazol-2-yl]thio}methyl)-N-[(1H-pyrrol-1-ylamino)carbonyl]benzenesulfonamide],100 to 1000,100 to 1000
COc1cc(C(C)(C)c2cnc(SCc3ccc(S(=O)(=O)NC(=O)NN4CCOCC4)cc3Cl)n2-c2ccc(F)cc2)ccc1Cl [3-chloro-4-({[5-{1-[4-chloro-3-(methyloxy)phenyl]-1-methylethyl}-1-(4-fluorophenyl)-1H-imidazol-2-yl]thio}methyl)-N-[(morpholin-4-ylamino)carbonyl]benzenesulfonamide],< 100,100 to 1000
CCCNC(=O)NS(=O)(=O)c1ccc(CSc2ncc(C(C)(C)c3ccc(Cl)c(OC)c3)n2-c2ccc(F)cc2)c(Cl)c1 [3-chloro-4-({[5-{1-[4-chloro-3-(methyloxy)phenyl]-1-methylethyl}-1-(4-fluorophenyl)-1H-imidazol-2-yl]thio}methyl)-N-[(propylamino)carbonyl]benzenesulfonamide],< 100,< 100
COc1cc(C(C)(C)c2cnc(SCc3ccc(S(=O)(=O)NC(=O)NN4CCCC4)cc3Cl)n2-c2ccc(F)cc2)ccc1Cl [3-chloro-4-({[5-{1-[4-chloro-3-(methyloxy)phenyl]-1-methylethyl}-1-(4-fluorophenyl)-1H-imidazol-2-yl]thio}methyl)-N-[(pyrrolidin-1-ylamino)carbonyl]benzenesulfonamide],100 to 1000,100 to 1000
COC[C@H]1CCCN1NC(=O)NS(=O)(=O)c1ccc(CSc2ncc(C(C)(C)c3ccc(Cl)c(OC)c3)n2-c2ccc(F)cc2)c(Cl)c1 [3-chloro-4-({[5-{1-[4-chloro-3-(methyloxy)phenyl]-1-methylethyl}-1-(4-fluorophenyl)-1H-imidazol-2-yl]thio}methyl)-N-[({(2R)-2-[(methyloxy)methyl]pyrrolidin-1-yl}amino)carbonyl]benzenesulfonamide],100 to 1000,100 to 1000
COc1cc(C(C)(C)c2cnc(SCc3ccc(S(=O)(=O)NC(=O)NC(C)C)cc3Cl)n2-c2ccc(F)cc2)ccc1Cl [3-chloro-4-({[5-{1-[4-chloro-3-(methyloxy)phenyl]-1-methylethyl}-1-(4-fluorophenyl)-1H-imidazol-2-yl]thio}methyl)-N-{[(1-methylethyl)amino]carbonyl} benzenesulfonamide],< 100,100 to 1000
COc1cc(C(C)(C)c2cnc(SCc3ccc(S(=O)(=O)NC(=O)NCC(C)(C)O)cc3Cl)n2-c2ccc(F)cc2)ccc1Cl [3-chloro-4-({[5-{1-[4-chloro-3-(methyloxy)phenyl]-1-methylethyl}-1-(4-fluorophenyl)-1H-imidazol-2-yl]thio}methyl)-N-{[(2-hydroxy-2-methylpropyl)amino]carbonyl} benzenesulfonamide],100 to 1000,100 to 1000
COc1cc(C(C)(C)c2cnc(SCc3ccc(S(=O)(=O)NC(=O)NN4CCN(C)CC4)cc3Cl)n2-c2ccc(F)cc2)ccc1Cl [3-chloro-4-({[5-{1-[4-chloro-3-(methyloxy)phenyl]-1-methylethyl}-1-(4-fluorophenyl)-1H-imidazol-2-yl]thio}methyl)-N-{[(4-methylpiperazin-1-yl)amino]carbonyl} benzenesulfonamide],100 to 1000,100 to 1000
COc1cc(C(C)(C)c2c(C)nc(SCc3c(F)cc(C(=O)O)cc3Cl)n2-c2ccc(F)cc2)ccc1Cl [3-chloro-4-({[5-{1-[4-chloro-3-(methyloxy)phenyl]-1-methylethyl}-1-(4-fluorophenyl)-4-methyl-1H-imidazol-2-yl]thio}methyl)-5-fluorobenzoic acid],< 100,100 to 1000

# More lines, now with the values ahead:
EC50 (h-TGR5) [nM],EC50 (human TGR5 (h-TGR5)) [nM],SMILES
< 100,< 100,COc1cc(C(C)(C)c2cnc(SCc3c(F)cc(C(=O)NC4CCN(c5nnn[nH]5)CC4)cc3Cl)n2-c2ccc(F)cc2)ccc1Cl [3-chloro-4-({[5-{1-[4-chloro-3-(methyloxy)phenyl]-1-methylethyl}-1-(4-fluorophenyl)-1H-imidazol-2-yl]thio}methyl)-5-fluoro-N-[1-(1H-tetrazol-5-yl)piperidin-4-yl]benzamide]
< 100,< 100,COc1cc(C(C)(C)c2cnc(SCc3c(F)cc(N)cc3Cl)n2-c2ccc(F)cc2)ccc1Cl [3-chloro-4-({[5-{1-[4-chloro-3-(methyloxy)phenyl]-1-methylethyl}-1-(4-fluorophenyl)-1H-imidazol-2-yl]thio}methyl)-5-fluoroaniline]
< 100,< 100,COc1cc(C(C)(C)c2cnc(SCc3c(F)cc(S(=O)(=O)O)cc3Cl)n2-c2ccc(F)cc2)ccc1Cl [3-chloro-4-({[5-{1-[4-chloro-3-(methyloxy)phenyl]-1-methylethyl}-1-(4-fluorophenyl)-1H-imidazol-2-yl]thio}methyl)-5-fluorobenzenesulfonic acid]
< 100,< 100,COc1cc(C(C)(C)c2cnc(SCc3c(F)cc(C(=O)O)cc3Cl)n2-c2ccc(F)cc2)ccc1Cl [3-chloro-4-({[5-{1-[4-chloro-3-(methyloxy)phenyl]-1-methylethyl}-1-(4-fluorophenyl)-1H-imidazol-2-yl]thio}methyl)-5-fluorobenzoic acid]
< 100,< 100,COc1cc(C(C)(C)c2cnc(SCc3ccc(S(=O)(=O)NC(=O)NC4CCCC4)cc3Cl)n2-c2ccc(F)cc2)ccc1Cl [3-chloro-4-({[5-{1-[4-chloro-3-(methyloxy)phenyl]-1-methylethyl}-1-(4-fluorophenyl)-1H-imidazol-2-yl]thio}methyl)-N-[(cyclopentylamino)carbonyl] benzenesulfonamide]
< 100,< 100,COc1cc(C(C)(C)c2cnc(SCc3ccc(S(=O)(=O)NC(=O)NC4CC4)cc3Cl)n2-c2ccc(F)cc2)ccc1Cl [3-chloro-4-({[5-{1-[4-chloro-3-(methyloxy)phenyl]-1-methylethyl}-1-(4-fluorophenyl)-1H-imidazol-2-yl]thio}methyl)-N-[(cyclopropylamino)carbonyl] benzenesulfonamide]
< 100,100 to 1000,CCNC(=O)NS(=O)(=O)c1ccc(CSc2ncc(C(C)(C)c3ccc(Cl)c(OC)c3)n2-c2ccc(F)cc2)c(Cl)c1 [3-chloro-4-({[5-{1-[4-chloro-3-(methyloxy)phenyl]-1-methylethyl}-1-(4-fluorophenyl)-1H-imidazol-2-yl]thio}methyl)-N-[(ethylamino)carbonyl]benzenesulfonamide]
